The target in test [1] is T1, Serine/threonine-protein kinase 3 (Homo sapiens) (UniProt Q13188).
T1 sequence (whole entry): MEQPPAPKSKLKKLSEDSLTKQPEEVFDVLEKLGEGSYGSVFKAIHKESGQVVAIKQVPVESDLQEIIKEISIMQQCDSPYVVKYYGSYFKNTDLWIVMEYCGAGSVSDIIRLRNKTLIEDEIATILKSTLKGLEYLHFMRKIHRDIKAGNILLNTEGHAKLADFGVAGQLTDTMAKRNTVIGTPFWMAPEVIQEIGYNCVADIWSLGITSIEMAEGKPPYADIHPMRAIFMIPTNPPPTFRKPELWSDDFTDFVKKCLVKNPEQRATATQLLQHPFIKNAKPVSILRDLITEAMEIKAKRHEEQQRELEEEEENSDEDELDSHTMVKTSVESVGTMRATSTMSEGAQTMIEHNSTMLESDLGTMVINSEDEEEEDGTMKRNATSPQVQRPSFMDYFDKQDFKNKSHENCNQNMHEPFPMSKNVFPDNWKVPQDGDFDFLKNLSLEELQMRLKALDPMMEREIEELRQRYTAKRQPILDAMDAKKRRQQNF
The test is described as follows: Inhibition of human full length MST2 expressed in baculovirus assessed as substrate phosphorylation using fluorescence-labelled peptides as substrate at 8 uM after 90 mins by microfluidic peptide phosphorylation assay.

In test [2] the target is T2, Inhibitor of nuclear factor kappa-B kinase subunit beta (Homo sapiens) (UniProt O14920).
T2 sequence (whole entry): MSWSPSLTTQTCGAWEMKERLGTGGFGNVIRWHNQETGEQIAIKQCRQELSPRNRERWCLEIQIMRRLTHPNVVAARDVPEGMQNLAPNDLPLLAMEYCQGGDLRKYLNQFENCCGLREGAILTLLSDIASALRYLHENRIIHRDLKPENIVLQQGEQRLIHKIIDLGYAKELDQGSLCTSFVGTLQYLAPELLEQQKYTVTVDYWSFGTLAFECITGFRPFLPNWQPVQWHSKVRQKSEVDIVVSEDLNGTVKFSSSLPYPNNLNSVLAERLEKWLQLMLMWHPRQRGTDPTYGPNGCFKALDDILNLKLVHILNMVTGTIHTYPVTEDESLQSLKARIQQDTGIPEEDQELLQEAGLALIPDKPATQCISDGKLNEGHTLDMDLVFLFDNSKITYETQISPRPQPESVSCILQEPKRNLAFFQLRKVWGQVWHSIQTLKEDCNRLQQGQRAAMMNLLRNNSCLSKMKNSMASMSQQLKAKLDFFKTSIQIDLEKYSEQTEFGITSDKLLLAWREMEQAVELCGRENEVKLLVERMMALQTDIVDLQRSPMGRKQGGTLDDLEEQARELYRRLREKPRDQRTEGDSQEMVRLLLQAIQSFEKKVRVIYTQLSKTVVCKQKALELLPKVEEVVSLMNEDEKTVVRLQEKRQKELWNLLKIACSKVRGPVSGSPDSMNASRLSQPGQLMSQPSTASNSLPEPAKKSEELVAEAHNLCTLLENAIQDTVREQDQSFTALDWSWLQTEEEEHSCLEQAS
Put plainly: Inhibition of human full length IKK beta expressed in baculovirus assessed as substrate phosphorylation using fluorescence-labelled peptides as substrate at 8 uM after 90 mins by microfluidic peptide phosphorylation assay.

Test [3] deals with T3, Serine/threonine-protein kinase DCLK2 (Homo sapiens) (UniProt Q8N568).
T3 sequence (whole entry): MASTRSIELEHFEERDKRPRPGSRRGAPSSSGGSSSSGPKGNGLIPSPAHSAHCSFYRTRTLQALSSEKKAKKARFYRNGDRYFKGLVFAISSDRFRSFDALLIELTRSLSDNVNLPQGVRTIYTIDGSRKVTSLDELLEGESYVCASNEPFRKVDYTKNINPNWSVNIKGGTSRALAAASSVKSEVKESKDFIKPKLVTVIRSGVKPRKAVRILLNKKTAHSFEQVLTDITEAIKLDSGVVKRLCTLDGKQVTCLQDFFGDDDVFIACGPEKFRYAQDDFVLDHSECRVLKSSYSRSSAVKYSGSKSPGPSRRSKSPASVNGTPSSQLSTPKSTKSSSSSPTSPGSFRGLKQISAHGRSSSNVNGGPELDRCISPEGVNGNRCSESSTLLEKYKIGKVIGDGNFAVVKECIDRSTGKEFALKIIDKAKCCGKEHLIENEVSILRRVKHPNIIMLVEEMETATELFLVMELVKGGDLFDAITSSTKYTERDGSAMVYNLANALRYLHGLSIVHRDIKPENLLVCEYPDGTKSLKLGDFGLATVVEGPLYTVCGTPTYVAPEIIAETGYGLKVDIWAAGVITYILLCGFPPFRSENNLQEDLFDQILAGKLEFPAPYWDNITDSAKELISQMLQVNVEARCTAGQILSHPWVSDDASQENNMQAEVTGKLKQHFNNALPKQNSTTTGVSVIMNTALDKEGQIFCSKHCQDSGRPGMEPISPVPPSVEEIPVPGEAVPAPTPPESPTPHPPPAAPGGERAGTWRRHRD
The test is described as follows: Inhibition of human full length DCAMKL2 expressed in baculovirus assessed as substrate phosphorylation using fluorescence-labelled peptides as substrate at 0.06 uM after 90 mins by microfluidic peptide phosphorylation assay.

Test [4] concerns the target T4, Serine/threonine-protein kinase Sgk1 (Homo sapiens) (UniProt O00141).
T4 sequence (whole entry): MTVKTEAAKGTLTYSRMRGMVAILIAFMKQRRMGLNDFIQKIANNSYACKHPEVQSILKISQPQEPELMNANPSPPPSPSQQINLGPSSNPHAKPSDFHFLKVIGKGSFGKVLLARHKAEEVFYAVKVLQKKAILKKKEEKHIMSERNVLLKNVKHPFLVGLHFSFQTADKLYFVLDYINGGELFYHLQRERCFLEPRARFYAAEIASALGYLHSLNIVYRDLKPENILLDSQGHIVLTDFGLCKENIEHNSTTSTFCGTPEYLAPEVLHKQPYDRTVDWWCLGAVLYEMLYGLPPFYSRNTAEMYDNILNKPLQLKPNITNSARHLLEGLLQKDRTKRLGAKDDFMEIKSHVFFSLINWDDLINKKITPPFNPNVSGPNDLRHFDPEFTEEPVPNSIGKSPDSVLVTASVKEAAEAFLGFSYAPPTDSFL
The test is described as follows: Inhibition of human truncated SGK1 expressed in baculovirus assessed as substrate phosphorylation using fluorescence-labelled peptides as substrate at 0.06 uM after 90 mins by microfluidic peptide phosphorylation assay.

In test [5] the target is Protein kinase C gamma type (Homo sapiens) (UniProt P05129). The test is described as follows: Inhibition of human truncated PKC gamma expressed in baculovirus assessed as substrate phosphorylation using fluorescence-labelled peptides as substrate at 0.06 uM after 90 mins by microfluidic peptide phosphorylation assay.
For test [6], the target named is T2, Inhibitor of nuclear factor kappa-B kinase subunit beta (Homo sapiens). Put plainly: Inhibition of human full length IKK beta expressed in baculovirus assessed as substrate phosphorylation using fluorescence-labelled peptides as substrate at […] after 90 mins by microfluidic peptide phosphorylation assay.
Test [7] has as its target Tyrosine-protein kinase Lck (Homo sapiens) (UniProt P06239). Put plainly: Inhibition of human full length LCK expressed in baculovirus assessed as substrate phosphorylation using fluorescence-labelled peptides as substrate at […] after 90 mins by microfluidic peptide phosphorylation assay.

Tyrosine-protein kinase Lck (Homo sapiens), sequence (P06239 2-509 limits assumed): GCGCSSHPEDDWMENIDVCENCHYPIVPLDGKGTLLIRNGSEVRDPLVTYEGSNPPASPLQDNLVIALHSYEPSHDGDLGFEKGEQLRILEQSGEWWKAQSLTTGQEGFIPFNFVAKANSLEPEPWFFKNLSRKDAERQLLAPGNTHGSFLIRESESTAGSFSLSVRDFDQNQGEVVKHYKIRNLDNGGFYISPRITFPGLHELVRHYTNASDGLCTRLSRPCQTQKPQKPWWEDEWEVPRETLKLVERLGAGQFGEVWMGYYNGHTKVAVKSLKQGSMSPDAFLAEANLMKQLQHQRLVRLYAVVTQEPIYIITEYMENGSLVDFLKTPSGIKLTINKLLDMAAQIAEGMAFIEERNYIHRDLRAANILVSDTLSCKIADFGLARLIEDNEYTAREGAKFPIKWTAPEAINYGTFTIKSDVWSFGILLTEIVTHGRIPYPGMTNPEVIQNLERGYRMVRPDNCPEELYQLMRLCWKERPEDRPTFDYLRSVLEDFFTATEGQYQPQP

As for `NCC1CCN(c2ncnc3[nH]ccc23)CC1`, the results for the inhibition in test [1] and in test [2] were 73% and 13.5%, respectively.
For `NC1(Cc2ccc(Cl)cc2)CCN(c2ncnc3[nH]ccc23)CC1`, the values for the inhibition in test [3], in test [4] and in test [5] were 0%, 56% and 3.5%, respectively.
As to `COC(=O)c1cnc(Nc2cnc(C#N)cn2)cc1NCC1CCNCC1`, the inhibition (usually the drop in the measured response relative to a control, in per cent) in test [6] turned out to be 2%; in test [7] it was 5.5%.
